# Marks after values point to notes of the source that are not given here.
# Legend:
# [1] = test system: hamsters fed a diet containing 0.25% cholesterol; assay: Example 2: five week hamster study, blood lipid levels, 0.25% cholesterol diet, 1% PS; format: in vivo, male Golden Syrian hamsters; conditions: BBRCI 100 mg/kg·d and/or PS 1% (w/w)
# Description: In this example, a controlled, five week animal study was performed. A total of 48 male Golden Syrian hamsters were randomized into 4 groups of 12 and fed isocaloric diets as follows. Hamster husbandry, living and feeding conditions were similar to that used for Example 1. • Control a semi-synthetic casein-corn starch-sucrose diet that contained 0.25% (w/w) cholesterol • BBRCI control diet containing 100 mg/kg·d of BBRCI • PS control diet containing 1% (w/w) PS • BBRCI+PS control diet containing 100 mg/kg·d BBRCI and 1% (w/w) PS One objective of this example was to determine the effects of each intervention on circulating blood lipids including total cholesterol (T-C), high-density-lipoprotein cholesterol (HDL-C), nonHDL-C (which is indicative of LDL-C levels) and triglyceride (TG) profiles when hamsters were fed a diet containing a higher concentration of cholesterol, for example, 0.25% by weight in the diet. Table 6 summarizes the effect on blood lipid levels (values are means±SD, n=12). Data were analyzed by one-way ANOVA followed by Tukey test if significance was detected. A significant difference was indicated by a p<0.05.
# [2] = Example 1: weekly body weight and daily feed intake; format: in vivo, Male Golden Syrian hamsters; conditions: Example 1, weekly body weight over 4 weeks, FIG. 5
# Description: Male Golden Syrian Hamsters were purchased from Charles River Co. housed individually in cages for two weeks prior to the commencement of the study. During this adjustment period, animals were fed with regular rodent chow diet with free access to both food and water. A total of 60 hamsters were weighed and randomly assigned to one of four groups of 15 animals each. Animals are subjected to a temperature-controlled environment with a 12:12 h light/dark cycle. Each group was fed with one of the four isocaloric experimental diets for a 4 week period. […] During the course of the experiment, animals were weighed weekly and food consumption was determined on a daily basis over the course of the experiment. During the course of the experiment, data were obtained with regard to food consumption and bodyweight so that the dose of BBRCI was maintained on a mg/kg basis as the animals grew over the 4 weeks experimental period. […] This may have important implications on weight control, healthy weight management strategies, and body composition (increase lean body mass) in humans and animals. […] Thereafter, significant differences in food intake was observed from days 22-25 but this effect disappeared during days 25-28 as a small surgical intervention was performed on each animal on day 25 on the neck area of the animal, which reduced food consumption in each treatment. […]
# [3] = test system: liver HMG-CoA reductase mRNA; assay: Example 1: liver HMG-CoA reductase mRNA expression, real-time PCR; format: in vivo, Male Golden Syrian hamsters; conditions: relative expression in reference to a housekeeping gene, Example 1, 4 weeks
# Description: Experiments were also conducted to determine the effect on the expression of genes associated with cholesterol in the liver and intestine. Total RNA was extracted and mRNA was converted to cDNA. The mRNA expression was measured by real-time PCR with four repeats and calculated as relative expression in reference to internal control of a housekeeping gene for each sample. Table 5 and FIG. 8a summarize the effect of BBRCI and PS alone or in combination on liver HMG-CoA reductase. […] HMG-CoA reductase is a rate-limiting enzyme in cholesterol biosynthesis. […] When a strong action occurs on cholesterol reduction through inhibiting cholesterol absorption, cholesterol biosynthesis is increased as compensatory response to the cholesterol loss due to the reduced absorption. The powerful synergistic action of BBRCI and PS on HMG-CoA reductase mRNA expression implies that the combination of these materials may act synergistically to reduce blood cholesterol, possibly by inhibiting cholesterol absorption.
# [4] = test system: hamsters fed a diet containing 0.25% cholesterol; assay: Example 2: tissue weight to body weight ratio; format: in vivo, male Golden Syrian hamsters; conditions: Example 2, 5 weeks; BBRCI 100 mg/kg·d and/or PS 1% (w/w); means±SD, n=12
# Description: In this example, a controlled, five week animal study was performed. A total of 48 male Golden Syrian hamsters were randomized into 4 groups of 12 and fed isocaloric diets as follows. Hamster husbandry, living and feeding conditions were similar to that used for Example 1. • Control a semi-synthetic casein-corn starch-sucrose diet that contained 0.25% (w/w) cholesterol • BBRCI control diet containing 100 mg/kg·d of BBRCI • PS control diet containing 1% (w/w) PS • BBRCI+PS control diet containing 100 mg/kg·d BBRCI and 1% (w/w) PS Table 7 summarizes the effect on tissue weight to body weight ratio (values are means±SD). Data were analyzed by one-way ANOVA followed by Tukey test when a significant treatment effect was detected. A significant difference was indicated by a p<0.05. […] The combination of BBRCI and PS (BBRCI+PS), however, reduced the average liver weight in a strong, statistically significant, and synergistic manner compared to liver weights in the BBRCI and PS groups.
# [5] = 0.25% cholesterol diet, 5 weeks, means±SD, n=12
smiles,measurement,setting,value
"COc1ccc2cc3[n+](cc2c1OC)CCc1cc2c(cc1-3)OCO2 [BBRCI, Berberine chloride]",HDL-C Concentration,[1]; [5],93.1 ± 27.1^ab mg/dl
same,T-C Concentration,[1]; [5],264.7 ± 49.8^a mg/dl
same,TG Concentration,[1]; [5],549.1 ± 225.3^a mg/dl
same,nonHDL-C Concentration,"[1]; 0.25% cholesterol diet, 5 weeks, n=12",173.5 ± 66.5^a mg/dl
same,HDL-C % difference from Control,"[1]; Example 2, 5 weeks",1.7%
same,HDL-C/nonHDL-C % difference from Control,"[1]; Example 2, 5 weeks",29%
same,T-C % difference from Control,"[1]; Example 2, 5 weeks",−7.8%
same,TG % difference from Control,"[1]; Example 2, 5 weeks",−0.2%
same,nonHDL-C % difference from Control,"[1]; Example 2, 5 weeks",−11.1%
same,HDL-C/nonHDL-C,"[1]; ratio, 0.25% cholesterol diet, 5 weeks, n=12",0.66 ± 0.41^ab
same,body weight,[2],trend toward reduced body weights after two weeks
same,HMG-CoA reductase mRNA expression,[3],0.98 ± 0.10^b
same,"Heart, tissue weight to body weight ratio",[4],0.37 ± 0.03
same,"Liver, tissue weight to body weight ratio",[4],4.67 ± 0.38^ab
same,"Right kidney, tissue weight to body weight ratio",[4],0.35 ± 0.03
